Test results from patent publication US4465687A, “Thienamycin derivatives as anti-inflammatory agents” (Merck & Co., Inc., priority 1982, dated 1984).

Target: T1, Human Polymorphonuclear Leukocyte Elastase (Homo sapiens, UniProt P08246)
T1 construct: Crude extract of human polymorphonuclear leukocytes (PMN) containing elastase activity; endogenous in cells; host or cells: human polymorphonuclear leukocytes (crude extract)
T1 sequence (P08246 30-247 limits assumed): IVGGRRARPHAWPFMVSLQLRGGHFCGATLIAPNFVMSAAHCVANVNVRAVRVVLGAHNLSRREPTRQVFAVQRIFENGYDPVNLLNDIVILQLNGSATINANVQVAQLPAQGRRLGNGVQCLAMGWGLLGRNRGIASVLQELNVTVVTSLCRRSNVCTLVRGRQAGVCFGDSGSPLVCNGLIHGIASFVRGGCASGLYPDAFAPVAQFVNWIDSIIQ
Experiment: Inhibition of human polymorphonuclear leukocyte elastase via hydrolysis of N-t-Boc-alanyl-alanyl-prolylalanine-p-nitroanilide
Format: biochemical
Conditions: measured within 2 minutes, crude PMN extract; for inhibition at 1 µg/mL: Conc. of compound 1 μg/ml; for inhibition at 2 µg/mL: Conc. of compound 2 μg/ml; for inhibition at 5 µg/mL: Conc. of compound 5 μg/ml; for inhibition at 20 µg/mL: Conc. of compound 20 μg/ml; for inhibition at 50 µg/mL: Conc. of compound 50 μg/ml
Description: Protocol--Enzyme Assays for the Inhibition of Human Polymorphonuclear Leukocyte Elastase Via Hydrolysis of N-t-Boc-alanyl-alanyl-prolylalanine-p-nitroanilide
0.05M TES (N-tris[hydroxymethyl]methyl-2-amino-ethanesulfonic acid) Buffer, pH 7.5.
0.2 mM N-t-Boc-alanyl-alanyl-Prolyl-Alanine-p-nitroanilide (Boc-AAPAN).
To prepare substrate, the solid (m.w. 550) was first dissolved in 10.0 ml DMSO. Buffer at pH 7.5 was then added to a final volume of 100 ml.
Crude extract of human polymorphonuclear leukocytes (PMN) containing elastase activity.
Inhibitors (thienamycin esters) to be treated dissolved in DMSO just before use.
To 1.0 ml of 0.2 mM Boc-AAPAN in a cuvette, 0.01-0.1 ml of DMSO with or without inhibitor was added. After mixing, a measurement was taken at 410 mμ to detect any spontaneous hydrolysis due to presence of test compound. 0.05 Milliliters of PMN extract was then added and the ΔOD/min at 410 mμ was measured and recorded. Beckman model 35 spectrophotometer was used.
The elastase activity in the crude PMN extract may vary from one preparation to another. A control of each new batch is run, and the volume added in the assay procedure is adjusted according to activity.

inhibition at 50 µg/mL [%]	Compound	inhibition at 1 µg/mL [%]	inhibition at 2 µg/mL [%]	inhibition at 5 µg/mL [%]	inhibition at 20 µg/mL [%]	inhibition at 10 µg/mL (Conc. of compound 10 μg/ml) [%]	inhibition at 25 µg/mL (Conc. of compound 25 μg/ml) [%]	inhibition at 0.5 µg/mL (Conc. of compound .5 μg/ml) [%]
–	CC(O)[C@H]1C(=O)N2C(C(=O)OCc3ccccc3)=C(SCCN3C(=O)c4ccccc4C3=O)C[C@H]12 (stereo partly drawn) [phthaloyl / H / benzyl]	39	56	89	100	–	–	–
100	CC(O)[C@H]1C(=O)N2C(C(=O)OCc3ccc([N+](=O)[O-])cc3)=C(SCCNC(=O)Cc3ccccc3)C[C@H]12 (stereo partly drawn) [COCH2 C6 H5 / H / H / PNB]	47	–	84	95	–	–	–
89	CCCC(=O)NCCSC1=C(C(=O)OCc2ccc([N+](=O)[O-])cc2)N2C(=O)[C@H]([C@@H](C)OC(C)=O)[C@H]2C1 [COCH2 C2 H5 / H / Ac / PNB]	–	–	31	69	–	–	–
–	CC(O)[C@H]1C(=O)N2C(C(=O)OCc3ccc([N+](=O)[O-])cc3)=C(SCCN3C(=O)c4ccccc4C3=O)C[C@H]12 (stereo partly drawn) [phthaloyl / H / PNB]	76	86	93	100	–	–	50

Compound	inhibition at 50 µg/mL [%]	inhibition at 1 µg/mL [%]	inhibition at 2 µg/mL [%]	inhibition at 5 µg/mL [%]	inhibition at 20 µg/mL [%]	inhibition at 10 µg/mL (Conc. of compound 10 μg/ml) [%]	inhibition at 25 µg/mL (Conc. of compound 25 μg/ml) [%]	inhibition at 0.5 µg/mL (Conc. of compound .5 μg/ml) [%]
CC(O[Si](C)(C)C)[C@H]1C(=O)N2C(C(=O)OCc3ccc([N+](=O)[O-])cc3)=C(SCCN3C(=O)c4ccccc4C3=O)C[C@H]12 (stereo partly drawn) [phthaloyl / TMS / PNB]	96	38	83	–	–	95	95	–
